Experimental data as given in patent US6949571B2, “1,2-dihydropyridine compounds, process for preparation of the same and use thereof” (Eisai Co., Ltd., priority 2000, dated 2005).
pIC50: −log10 of the molar value.

test system: AMPA receptor; conditions: Table 3; primary culture of rat embryo cerebral cortex nerve cells, 2 μM AMPA, 1 μM MK-801
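Also: primary rat embryonic cortical neurons grown on an astrocyte layer in 96-well plates, used after at least 8 to 10 days in culture, Fura2-AM fluorescence ratio at 340/380 nm excitation.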
Method: Cerebral cortex was cut out from the brain of rat of gestational 18 days and treated with trypsin and DNase to disperse the cells. The cells were flown by MEM containing 10% of serum, sown in a culture bottle and astrocytes were proliferated. The astrocytes were re-dispersed by trypsin and sown in a 96-well plate. After incubation for one week, it was confirmed that the astrocytes covered all over the bottom and then the nerve cells of cerebral cortex which was dispersed by the above method were sown thereupon. After incubation for 24 hours, the medium was changed, the incubation was carried out for one week and, after that, the medium was changed to that containing 1 μM of MK-801. Nerve cells which were incubated for not shorter than 8 to 10 days were used.
Calcium influx into the cells was measured using Fura2-AM which was a calcium-sensitive fluorescent dye. It was treated in a medium containing Fura2-AM for 1 hour, incorporated into the cells, exchanged to a Tyrode solution containing 1 μM MK-801 and stimulation was carried out using 2 μM AMPA. Change in the amount of calcium flown into the cells were measured as the change in the fluorescent intensity at the exciting wave length of 340/380 nm.

First: CN1CCC(Oc2cccc(-n3cc(-c4ccccn4)cc(-c4ccccc4C#N)c3=O)c2)CC1 [Example 341, 1-[3-(N-methylpiperidin-4-yl-oxy)phenyl]-3-(2-cyanophenyl)-5-(2-pyridyl)-1,2-dihydropyridin-2-one]
Second: Cc1ccc(-n2cc(-c3ccccn3)cc(-c3ccccc3C#N)c2=O)cc1[N+](=O)[O-] [Example 381, 3-(2-Cyanophenyl)-5-(2-pyridyl)-1-(2-nitrotoluen-4-yl)-1,2-dihydropyridin-2-one]
The pIC50 of the first is 0.30 log units higher: 6.70 for the first, 6.40 for the second. The first is the more potent here.

`O=C(NC1CCCCC1)c1cc(-c2ccccn2)cn(-c2ccccc2)c1=O` [Example 344, 3-Cyclohexylaminocarbonyl-5-(2-pyridyl)-1-phenyl-1,2-dihydropyridin-2-one] and `O=C(NC12CC3CC(CC(C3)C1)C2)c1cc(-c2ccccn2)cn(-c2ccccc2)c1=O` [Example 346, 3-(1-Adamantylaminocarbonyl)-5-(2-pyridyl)-1-phenyl-1,2-dihydropyridin-2-one] are within 0.2 log units of each other in pIC50: 5.33 for the first, 5.43 for the second.

`Cc1ccc2[nH]c(-c3cc(-c4ccccc4C#N)c(=O)n(-c4ccccc4)c3)nc2c1` [Example 351, 3-(2-Cyanophenyl)-5-(5-methyl-1H-benzimidazol-2-yl)-1-phenyl-1,2-dihydropyridin-2-one] and `N#Cc1ccccc1-c1cc(-c2nc3ccccc3[nH]2)cn(-c2ccccc2)c1=O` [Example 386, 3-(2-Cyanophenyl)-5-(1H-benzimidazol-2-yl)-1-phenyl-1,2-dihydropyridin-2-one] are within 0.2 log units of each other in pIC50: 5.48 for the first, 5.46 for the second.

Going from `Cc1cccc2[nH]c(-c3cc(-c4ccccc4C#N)c(=O)n(-c4ccccc4)c3)nc12` [Example 352, 3-(2-Cyanophenyl)-5-(4-methyl-1H-benzimidazol-2-yl)-1-phenyl-1,2-dihydropyridin-2-one] to `N#Cc1ccccc1-c1cc(-c2nc3cnccc3[nH]2)cn(-c2ccccc2)c1=O` [Example 362, 3-(2-Cyanophenyl)-5-(1H-imidazo[4,5-c]pyridin-2-yl)-1-phenyl-1,2-dihydropyridin-2-one], the pIC50 falls from 5.80 to 5.43 (0.37 log units).

First: O=c1c(-c2nc3cc(Cl)c(Cl)cc3[nH]2)cc(-c2ccccn2)cn1-c1ccccc1 [Example 354, 3-(5.6-Dichloro-1H-benzimidazol-2-yl)-5-(2-pyridyl)-1-phenyl-1,2-dihydropyridin-2-one]
Second: O=c1c(-c2nc3ccc(Cl)cc3[nH]2)cc(-c2ccccn2)cn1-c1ccccc1 [Example 355, 3-(6-Chloro-1H-benzimidazol-2-yl)-5-(2-pyridyl)-1-phenyl-1,2-dihydropyridin-2-one]
The pIC50 of the first is 0.88 log units lower: 5.82 for the first, 6.70 for the second.

`O=c1c(-c2nc3ccccc3n2-c2ccncc2)cc(-c2ccccn2)cn1-c1ccccc1` [Example 356, 3-[1-(Pyridin-4-yl)benzimidazol-2-yl]-5-(2-pyridyl)-1-phenyl-1,2-dihydropyridin-2-one] and `O=c1c(-c2nc3ccccc3n2-c2ccccc2)cc(-c2ccccn2)cn1-c1ccccc1` [Example 360, 3-(1-Phenylbenzimidazol-2-yl)-5-(2-pyridyl)-1-phenyl-1,2-dihydropyridin-2-one] are within 0.2 log units of each other in pIC50: 5.68 for the first, 5.51 for the second.

Going from `N#Cc1ccccc1-c1cc(-c2nc3cccc4c3n2CCC4)cn(-c2ccccc2)c1=O` [Example 358, 3-(2-Cyanophenyl)-5-(5,6-dihydro-4H-imidazo[4,5,1-i,j]quinolin-2-yl)-1-phenyl-1,2-dihydropyridin-2-one] to `O=c1c(-c2nc3cccc4c3n2CCC4)cc(-c2ccccn2)cn1-c1ccccc1` [Example 359, 3-(5,6-Dihydro-4H-imidazo[4,5,1-i,j]quinolin-2-yl)-5-(2-pyridyl)-1-phenyl-1,2-dihydropyridin-2-one], the pIC50 falls from 5.85 to 5.64 (0.21 log units). The first is the more potent here.

First: N#Cc1ccccc1-c1cc(-c2nc3ccccc3n2C2CCN(Cc3ccccc3)CC2)cn(-c2ccccc2)c1=O [Example 365, 3-(2-Cyanophenyl)-5-[1-(1-benzylpiperidin-4-yl)benzimidazol-2-yl]-1-phenyl-1,2-dihydropyridin-2-one]
Second: N#Cc1ccccc1-c1cc(-c2ccccn2)cn(C2CCCN(Cc3ccccc3)C2)c1=O (stereo not drawn) [Example 379-B, 3-(2-Cyanophenyl)-5-(2-pyridyl)-1-(N-benzylpiperidin-3-yl)-1,2-dihydropyridin-2-one]
The pIC50 of the first is 0.38 log units higher: 5.57 for the first, 5.19 for the second.

`O=c1c(-c2nc3cnccc3[nH]2)cc(-c2ccccn2)cn1-c1ccccc1` [Example 367, 3-(1H-Imidazo[4,5-c]pyridin-2-yl)-5-(2-pyridyl)-1-phenyl-1,2-dihydropyridin-2-one] and `O=c1c(-c2nc3ccccc3s2)cc(-c2ccccn2)cn1-c1ccccc1` [Example 371, 3-(2-Benzothiazolyl)-5-(2-pyridyl)-1-phenyl-1,2-dihydropyridin-2-one] are the same in pIC50: 6.22 for the first, 6.22 for the second.

Compared with `O=c1c(S(=O)(=O)c2ccc(Cl)cc2)cc(-c2ccccn2)cn1-c1ccccc1` [Example 382-B, 3-(4-Chlorobenzenesulfonyl)-5-(2-pyridyl)-1-phenyl-1,2-dihydropyridin-2-one], `N#Cc1sccc1-c1cc(-c2ccccn2)cn(-c2ccccc2)c1=O` [Example 391, 3-(2-Cyanothiophen-3-yl)-5-(2-pyridyl)-1-phenyl-1,2-dihydropyridin-2-one] is 1.36 log units higher in pIC50: 5.64 for the first, 7.00 for the second. The second is the more potent here.

First: O=c1c(-c2ccccc2Cl)cc(Sc2ccc(Cl)cc2)cn1-c1cccnc1 [Example 385, 3-(2-Chlorophenyl)-5-(4-chlorophenylthio)-1-(3-pyridyl)-1,2-dihydropyridin-2-one]
Second: O=c1c(-c2ccccc2-c2cnco2)cc(-c2ccccn2)cn1-c1ccccc1 [Example 392, 3-[2-(5-oxazolyl)phenyl]-1-phenyl-5-(2-pyridyl)-1,2-dihydropyridin-2-one]
The pIC50 of the first is 1.04 log units lower: 5.96 for the first, 7.00 for the second.

First: O=c1c(C2C3CC4CC(C3)CC2C4)cc(-c2ccccn2)cn1-c1ccccc1 (stereo not drawn) [Example 387, 3-(2-Adamantyl)-5-(2-pyridyl)-1-phenyl-1,2-dihydropyridin-2-one]
Second: O=c1c(-c2nc(-c3ccccc3)no2)cc(-c2ccccn2)cn1-c1ccccc1 [Example 390, 3-(3-Phenyl-1,2,4-oxadiazol-5-yl)-1-phenyl-5-(2-pyridyl)-1,2-dihydropyridin-2-one]
The pIC50 of the first is 0.85 log units lower: 5.15 for the first, 6.00 for the second. The second is the more potent here.

Going from `Cn1cccc2nc(-c3cc(-c4ccccc4C#N)c(=O)n(-c4ccccc4)c3)nc1-2` [Example 388, 3-(2-Cyanophenyl)-5-(4-methyl-imidazo[4.5-b]pyridin-2-yl)-1-phenyl-1,2-dihydropyridin-2-one] to `N#Cc1ccccc1-c1cc(C(=O)c2ccccn2)cn(-c2ccccc2)c1=O` [Example 394, 3-(2-Cyanophenyl)-5-(2-pyridinecarbonyl)-1-phenyl-1,2-dihydropyridin-2-one], the pIC50 rises from 5.54 to 5.85 (0.31 log units).

`O=c1c(-c2ccsc2-c2cnco2)cc(-c2ccccn2)cn1-c1ccccc1` [Example 393, 3-[2-(5-Oxazolyl)thiophen-3-yl]-1-phenyl-5-(2-pyridyl)-1,2-dihydropyridin-2-one] and `CCOC(=O)C=Cc1sccc1-c1cc(-c2ccccn2)cn(-c2ccccc2)c1=O` [Example 398, 3-[(2-Ethoxycarbonyl)vinylthiophen-3-yl]-5-(2-pyridyl)-1-phenyl-1,2-dihydropyridin-2-one] are within 0.2 log units of each other in pIC50: 6.52 for the first, 6.70 for the second.

For `O=C(c1cc(-c2ccccc2)c(=O)n(-c2ccccc2)c1)c1ccccn1` [Example 395, 5-(2-Pyridinecarbonyl)-1-phenyl-3-phenyl-1,2-dihydropyridin-2-one], the pIC50 was 6.05.

same assay, conditions: control compound; same test, 2 μM AMPA

Work on `CC1=NN=C(c2ccc(N)cc2)c2cc3c(cc2C1)OCO3` [GYKI 52466, reference compound] yielded a pIC50 of 5.04.
